Patent US20140221639A1, “RADIOLABELED NUCLEOSIDE ANALOGUE, AND PREPARATION METHOD AND USE THEREOF” (Institute of Nuclear Energy Research Atomic Energy Council, …, priority 2011, published 2014)
Values joined by “and” are separate entries in the source; they are usually repeats but may differ in a detail not shown here. Equal entries are not always repeated.

What was measured:
NG4TL4 cells = assay: Cellular uptake test (ratio of cell to medium); type: cell-based; conditions: 1, 2, 4 and 8 h
Protocol: (§1) 2×10^6 cells was inoculated in a 15 cm^2 dish containing 14 mL medium supplemented with 10% FBS. […] At specified time points (using I-131 tracer at 1, 2, 4 and 8_h), the cells on the dish was harvested by using a cell scraper. Then, a cell suspension was transferred to a 15 mL centrifuge tube and centrifuged (at 3500 rpm) for 2 min. After centrifugation, 100 μL centrifugate was collected to a preweighed counting tube and directly poured into a maintained medium. Cell pellets were frozen with dry ice, and further collected into another weighed counting tube. […] Accumulation of activity of radioactive trancer in cell in vitro is represented by a radio of cell to medium:
(§2) Uptake experimental results of the two radioactive nucleoside analogues [^131I]IUdR and [^131I]ICdR in cells are as shown in FIGS. 4((a), (b)).

LL/2 cells = assay: Cellular uptake test (ratio of cell to medium); type: cell-based; conditions: 1, 2, 4 and 8 h
Protocol: as §1, §2

[1] = mouse, in vivo, iv
NG4TL4 sarcoma cells = assay: Study on incorporation in DNA; type: cell-based; conditions: 1 μCi/mL medium, 0.5-8 h
Protocol: DNA was extracted with Genomic DNA Mini Kit (Geneaid Biotech Ltd., Taiwan). NG4TL4 cell lines were harvested and inoculated into a petri dish at 2×10^6. […] At 0.5, 1, 2, 4 and 8 h after incubation, the medium was removed, and the cells was washed two times with ice-cold PBS, and then sheared with trypsin and collected to a centrifuge tube for centrifugation (at […] for 1 min). The supernatant was removed, while 50 μL remaining buffer was left to keep the cells in suspension. 300 μL cell lysis buffer was added to the sample and uniformly mixed, the cells was cultured in a water bath at 60° C. for a sereral minutes till the solution was transparent (the sample was inversed once every 3 min). 2 μL RNAse (25 mg/mL) was added to the sample and uniformly mixed, after 5-min incubation at room temperature, 100 μL protein removal buffer was added to the sample, uniformly mixed immediately, and centrifuged for 3 min at full speed (14000 rpm) after 5-min incubation on ice. The resulting solution was transferred as a suspension to another tube, and isopropanol was added and thoroughly mixed. […] In the test, DNA purity was determined at absorption wavelengths of 260 nm and 280 nm, and the ratio of absorbances (OD260/OD280) was about 1.7.

[2] = Analysis of metabolites in blood and urine through NP-TLC; type: in vivo, FVB/N mice; conditions: NP-TLC EA/EtOH = 5/1
Protocol: Blood samples were obtained by heart puncture, and then centrifuged at 13,000 rpm for 10 min. Then, the supernatant (about 300 μL) was placed in a 1.5 mL centrifuge tube containing equal amount of ethanol, and then centrifuged again to obtain the serum.

NG4TL4-WT tumor = assay: Biodistribution study in tumor-bearing mice; type: in vivo, FVB/N mice; conditions: for Biodistribution Blood / Biodistribution Bone / Biodistribution Brain / Biodistribution Heart / Biodistribution Kidney / Biodistribution Large Intestine / Biodistribution Liver / Biodistribution Lung / Biodistribution Marrow / Biodistribution Muscle / Biodistribution Pancreas / Biodistribution Small Intestine / Biodistribution Spleen / Biodistribution Stomach / Biodistribution Tumor / T/B (aggregation ratio of tumor to blood) / T/M (tumor-muscle aggregation ratio): 80~90 μCi tail vein, FVB/N mice with NG4TL4-WT tumor
Text: […] Tumor and 13 other tissures (blood, heart, lung, liver, stomach, small intestine, large intestine, spleen, pancreas, kidney, bone, marrow, and muscle) were removed, rinsed, weighed, and determined for radioactivity with a γ scintilation counter. Uptake of the radioactive trancers in the tissues (counts per min) was calibrated against decay, normalizedto sample weight, and expressed as percentages of injected dosage per gram of tissue (% ID/g) and aggregation ratio of tumor to blood.

[3] = 0.25 h after ^131I-ICdR at tail vein
[4] = 1 h after ^131I-ICdR at tail vein
[5] = 2 h after ^131I-ICdR at tail vein

Nc1nc(=O)n([C@H]2C[C@H](O)[C@@H](CO)O2)cc1[131I] [^131I-ICdR]
uptake value over time (NG4TL4 cells): continuously increased with time
uptake value over time (LL/2 cells): continuously increased with time
CL (total body clearance) [1]: 3.90 ± 0.59 mL/h
incorporation into cells / radioactive accumulation in DNA with time (NG4TL4 sarcoma cells): linearly incorporated
^131I-ICdR (%) in Blood [2, 3]: 63.10 ± 1.17%
^131I-ICdR (%) in Urine [2, 3]: 56.49 ± 6.58%
^131I-IUdR (%) in Blood [2, 3]: 18.62 ± 2.25%
^131I-IUdR (%) in Urine [2, 3]: 3.19 ± 1.03%
^131I-I^- (%) in Blood [2, 3]: 18.28 ± 3.39%
^131I-I^- (%) in Urine [2, 3]: 40.32 ± 6.18%
^131I-compound (unknown) (%) in Blood [2, 3]: 0%
^131I-compound (unknown) (%) in Urine [2, 3]: 0%
^131I-ICdR (%) in Blood [2, 4]: 72.2% and 72.16 ± 3.66%
^131I-ICdR (%) in Urine [2, 4]: 71.0% and 71 + 0.26%
^131I-IUdR (%) in Blood [2, 4]: 0%
^131I-IUdR (%) in Urine [2, 4]: 0%
^131I-I^- (%) in Blood [2, 4]: 14.11 ± 6.15%
^131I-I^- (%) in Urine [2, 4]: 26.54 ± 0.34%
^131I-compound (unknown) (%) in Blood [2, 4]: 13.73 ± 1.38%
^131I-compound (unknown) (%) in Urine [2, 4]: 2.46 ± 0.08%
^131I-ICdR (%) in Blood [2, 5]: 67.77 ± 7.33%
^131I-ICdR (%) in Urine [2, 5]: 81.1 ± 8.86%
^131I-IUdR (%) in Blood [2, 5]: 0%
^131I-IUdR (%) in Urine [2, 5]: 0%
^131I-I^- (%) in Blood [2, 5]: 19 + 5.90%
^131I-I^- (%) in Urine [2, 5]: 15.37 ± 7.67%
^131I-compound (unknown) (%) in Blood [2, 5]: 13.23 ± 1.97%
^131I-compound (unknown) (%) in Urine [2, 5]: 3.53 ± 1.96%
Biodistribution Blood (NG4TL4-WT tumor; 1 h): 6.21 ± 1.11 % ID/g
Biodistribution Bone (NG4TL4-WT tumor; 1 h): 0.96 ± 0.13 % ID/g
Biodistribution Brain (NG4TL4-WT tumor; 1 h): 0.25 ± 0.03 % ID/g
Biodistribution Heart (NG4TL4-WT tumor; 1 h): 1.45 + 0.14 % ID/g
Biodistribution Kidney (NG4TL4-WT tumor; 1 h): 3.96 ± 0.39 % ID/g
Biodistribution Large Intestine (NG4TL4-WT tumor; 1 h): 2.92 ± 0.18 % ID/g
Biodistribution Liver (NG4TL4-WT tumor; 1 h): 2.05 ± 0.20 % ID/g
Biodistribution Lung (NG4TL4-WT tumor; 1 h): 3.52 ± 0.48 % ID/g
Biodistribution Marrow (NG4TL4-WT tumor; 1 h): 3.29 ± 0.08 % ID/g
Biodistribution Muscle (NG4TL4-WT tumor; 1 h): 0.85 ± 0.04 % ID/g
Biodistribution Pancreas (NG4TL4-WT tumor; 1 h): 2.81 ± 0.42 % ID/g
Biodistribution Small Intestine (NG4TL4-WT tumor; 1 h): 4.79 ± 0.41 % ID/g
Biodistribution Spleen (NG4TL4-WT tumor; 1 h): 4.03 ± 0.55 % ID/g
Biodistribution Stomach (NG4TL4-WT tumor; 1 h): 17.07 + % ID/g
Biodistribution Tumor (NG4TL4-WT tumor; 1 h): 3.46 ± 0.07 % ID/g
T/B (aggregation ratio of tumor to blood) (NG4TL4-WT tumor; 1 h): 0.56
T/M (tumor-muscle aggregation ratio) (NG4TL4-WT tumor; 1 h): 4.07
Biodistribution Blood (NG4TL4-WT tumor; 2 h): 3.76 ± 0.13 % ID/g
Biodistribution Bone (NG4TL4-WT tumor; 2 h): 0.71 ± 0.19 % ID/g
Biodistribution Brain (NG4TL4-WT tumor; 2 h): 0.15 ± 0.03 % ID/g
Biodistribution Heart (NG4TL4-WT tumor; 2 h): 1.14 + 0.01 % ID/g
Biodistribution Kidney (NG4TL4-WT tumor; 2 h): 2.36 ± 0.06 % ID/g
Biodistribution Large Intestine (NG4TL4-WT tumor; 2 h): 2.54 ± 0.33 % ID/g
Biodistribution Liver (NG4TL4-WT tumor; 2 h): 1.43 ± 0.09 % ID/g
Biodistribution Lung (NG4TL4-WT tumor; 2 h): 2.72 ± 0.17 % ID/g
Biodistribution Marrow (NG4TL4-WT tumor; 2 h): 3.58 ± 1.12 % ID/g
Biodistribution Muscle (NG4TL4-WT tumor; 2 h): 0.61 ± 0.05 % ID/g
Biodistribution Pancreas (NG4TL4-WT tumor; 2 h): 2.08 ± 0.08 % ID/g
Biodistribution Small Intestine (NG4TL4-WT tumor; 2 h): 4.79 ± 0.45 % ID/g
Biodistribution Spleen (NG4TL4-WT tumor; 2 h): 3.07 ± 0.09 % ID/g
Biodistribution Stomach (NG4TL4-WT tumor; 2 h): 14.99 ± 4.04 % ID/g
Biodistribution Tumor (NG4TL4-WT tumor; 2 h): 3.78 ± 0.07 % ID/g
T/B (aggregation ratio of tumor to blood) (NG4TL4-WT tumor; 2 h): 1.00
T/M (tumor-muscle aggregation ratio) (NG4TL4-WT tumor; 2 h): 6.16
Biodistribution Blood (NG4TL4-WT tumor; 4 h): 3.40 ± 0.15 % ID/g
Biodistribution Bone (NG4TL4-WT tumor; 4 h): 0.77 ± 0.07 % ID/g
Biodistribution Brain (NG4TL4-WT tumor; 4 h): 0.12 ± 0.02 % ID/g
Biodistribution Heart (NG4TL4-WT tumor; 4 h): 0.84 + 0.07 % ID/g
Biodistribution Kidney (NG4TL4-WT tumor; 4 h): 2.07 ± 0.10 % ID/g
Biodistribution Large Intestine (NG4TL4-WT tumor; 4 h): 2.88 ± 0.21 % ID/g
Biodistribution Liver (NG4TL4-WT tumor; 4 h): 0.85 ± 0.01 % ID/g
Biodistribution Lung (NG4TL4-WT tumor; 4 h): 2.28 ± 0.12 % ID/g
Biodistribution Marrow (NG4TL4-WT tumor; 4 h): 3.82 ± 0.54 % ID/g
Biodistribution Muscle (NG4TL4-WT tumor; 4 h): 0.51 ± 0.04 % ID/g
Biodistribution Pancreas (NG4TL4-WT tumor; 4 h): 2.09 ± 0.13 % ID/g
Biodistribution Small Intestine (NG4TL4-WT tumor; 4 h): 5.27 ± 0.39 % ID/g
Biodistribution Spleen (NG4TL4-WT tumor; 4 h): 2.88 ± 0.13 % ID/g
Biodistribution Stomach (NG4TL4-WT tumor; 4 h): 17.68 ± 0.74 % ID/g
Biodistribution Tumor (NG4TL4-WT tumor; 4 h): 4.85 ± 0.17 % ID/g
T/B (aggregation ratio of tumor to blood) (NG4TL4-WT tumor; 4 h): 1.43
T/M (tumor-muscle aggregation ratio) (NG4TL4-WT tumor; 4 h): 9.59
Biodistribution Blood (NG4TL4-WT tumor; 8 h): 0.77 ± 0.10 % ID/g
Biodistribution Bone (NG4TL4-WT tumor; 8 h): 0.11 ± 0.02 % ID/g
Biodistribution Brain (NG4TL4-WT tumor; 8 h): 0.01 ± 0.00 % ID/g
Biodistribution Heart (NG4TL4-WT tumor; 8 h): 0.19 + 0.03 % ID/g
Biodistribution Kidney (NG4TL4-WT tumor; 8 h): 0.75 ± 0.02 % ID/g
Biodistribution Large Intestine (NG4TL4-WT tumor; 8 h): 1.33 ± 0.06 % ID/g
Biodistribution Liver (NG4TL4-WT tumor; 8 h): 0.38 ± 0.02 % ID/g
Biodistribution Lung (NG4TL4-WT tumor; 8 h): 0.69 ± 0.16 % ID/g
Biodistribution Marrow (NG4TL4-WT tumor; 8 h): 2.31 ± 0.10 % ID/g
Biodistribution Muscle (NG4TL4-WT tumor; 8 h): 0.09 ± 0.01 % ID/g
Biodistribution Pancreas (NG4TL4-WT tumor; 8 h): 0.38 ± 0.05 % ID/g
Biodistribution Small Intestine (NG4TL4-WT tumor; 8 h): 2.06 ± 0.13 % ID/g
Biodistribution Spleen (NG4TL4-WT tumor; 8 h): 2.77 ± 0.09 % ID/g
Biodistribution Stomach (NG4TL4-WT tumor; 8 h): 2.85 ± 0.61 % ID/g
Biodistribution Tumor (NG4TL4-WT tumor; 8 h): 2.32 ± 0.27 % ID/g
T/B (aggregation ratio of tumor to blood) (NG4TL4-WT tumor; 8 h): 3.02
T/M (tumor-muscle aggregation ratio) (NG4TL4-WT tumor; 8 h): 25.77
excretion of drug and metabolites (NG4TL4-WT tumor; mice): mainly through the urinary system
accumulation in organs (biodistribution and imaging) (NG4TL4-WT tumor; tumor-bearing mice): obviously accumulated in organs that rapidly proliferates
